Measured values taken from paper PMC6327987, “Synthesis and biological evaluation of novel N^9-heterobivalent β-carbolines as angiogenesis inhibitors” (Journal of Enzyme Inhibition and Medicinal Chemistry, 2019).
Read-outs that look alike come from different tables or passages of the source.

Tests used:
LLC = test: MTT cytotoxicity, Lewis lung carcinoma cells; type: cell-based; settings: MTT assay, mean ± SD of at least three determinations
Description: (§1) Target compounds were assayed by the MTT method for cytotoxic activity, as described previously. The panel of cell lines included gastric carcinoma (BGC-823), liver carcinoma (HepG2), breast carcinoma (MCF-7), colon carcinoma (HT-29), esophageal carcinoma (Eca-109), and Lewis lung carcinoma (LLC). Growth inhibition rates were calculated with the following equitation: Inhibition ratio (%)= ODcompd−ODblank/ODDMSO−ODblank×100% . Half maximal inhibitory concentration (IC50) of each compound was calculated using software Graph-Pad Prism (version 6.0).
(§2) All the 24 novel synthesized N^9-heterobivalent β-carbolines (5a-x) were screened for their in vitro cytotoxic activities against six different cancer cell lines, namely BGC-823 (gastric carcinoma), HepG2 (liver carcinoma), MCF-7 (breast carcinoma), HT-29 (colon carcinoma), Eca-109 (esophageal carcinoma) and LLC (Lewis lung carcinoma). The IC50 values were the average of at least three independent experiments.

Eca-109 = test: MTT cytotoxicity, esophageal carcinoma cells; type: cell-based; settings: esophageal carcinoma Eca-109, mean ± SD of at least three determinations
Description: as §1, §2

MCF-7 = test: MTT cytotoxicity, breast carcinoma cells; type: cell-based; settings: MTT assay, breast carcinoma MCF-7, mean ± SD of at least three determinations
Description: as §1, §2

HepG2 = test: MTT cytotoxicity, liver carcinoma cells; type: cell-based; settings: MTT assay, liver carcinoma HepG2, mean ± SD of at least three determinations
Description: as §1, §2

HT-29 = test: MTT cytotoxicity, colon carcinoma cells; type: cell-based; settings: MTT assay, colon carcinoma HT-29, mean ± SD of at least three determinations
Description: as §1, §2

BGC-823 = test: MTT cytotoxicity, gastric carcinoma cells; type: cell-based; settings: MTT assay, gastric carcinoma BGC-823, mean ± SD of at least three determinations
Description: as §1, §2

[1] = test system: six tumor cell lines (BGC-823, HepG2, MCF-7, HT-29, Eca-109, LLC); test: MTT cytotoxicity, panel of six tumour cell lines (summary statements); type: cell-based; settings: MTT assay, statement over all cell lines tested; read-out: IC50 against the tested six tumor cell lines
Description: as §1, §2

[2] = Homo sapiens, ECa-109, MTT assay

SMILES | melting point [°C] | IC50 (LLC) [µM] | IC50 (Eca-109; MTT assay) [µM] | IC50 (MCF-7; read-out: IC50 (μM) ±SD MCF7) [µM] | IC50 (HepG2) [µM] | IC50 (HT-29) [µM] | IC50 (BGC-823) [µM] | IC50 (LLC; Lewis lung carcinoma) [µM] | IC50 (Eca-109; [2]) [µM] | IC50 (MCF-7; Homo sapiens, MCF7) [µM] | IC50 (HepG2; Homo sapiens) [µM] | IC50 (HT-29; Homo sapiens) [µM] | IC50 (BGC-823; Homo sapiens) [µM] | IC50 [1] [µM]
N.N.[Cl][Pt][Cl] [Cisplatin, reference compound] | – | 7.6 ± 0.4 | 8.9 ± 0.6 | 12.4 ± 0.7 | 14.8 ± 0.4 | 26.8 ± 1.4 | 11.6 ± 0.7 | – | – | – | – | – | – | –
c1csc(-c2nccc3c4ccccc4n(CCCCn4c5ccccc5c5ccncc54)c23)c1 [Compound 5e, 1–(2-thienyl)-9–(4-(β-carboline-9-yl)butyl)-β-carboline] | 141.6 to 143.1 | – | – | – | – | – | – | 32.3 ± 4.5 | > 100 | > 100 | > 100 | 18.1 ± 3.6 | > 100 | –
Cc1nccc2c3ccccc3n(CCCCCn3c4ccccc4c4ccnc(-c5cccs5)c43)c12 [Compound 5g, 1–(2-thienyl)-9–(5-(1-methyl-β-carboline-9-yl)pentyl)-β-carboline] | 158.4 to 159.2 | – | – | – | – | – | – | 22.7 ± 1.4 | 30.8 ± 3.2 | 75.5 ± 10.7 | 18.8 ± 2.3 | 32.3 ± 5.3 | 97.6 ± 12.4 | 18.8 to 97.6
Cc1nccc2c3ccccc3n(CCCCCCn3c4ccccc4c4ccnc(-c5cccs5)c43)c12 [Compound 5h, 1–(2-thienyl)-9–(6-(1-methyl-β-carboline-9-yl)hexyl)-β-carboline] | 238.5 to 239.6 | – | – | – | – | – | – | 30.2 ± 1.5 | 30.2 ± 3.4 | 75.9 ± 9.4 | > 100 | 47.8 ± 6.5 | > 100 | –

Further lines, with some results ahead:

melting point [°C] | SMILES | IC50 (LLC) [µM] | IC50 (Eca-109; MTT assay) [µM] | IC50 (MCF-7; read-out: IC50 (μM) ±SD MCF7) [µM] | IC50 (HepG2) [µM] | IC50 (HT-29) [µM] | IC50 (BGC-823) [µM] | IC50 (LLC; Lewis lung carcinoma) [µM] | IC50 (Eca-109; [2]) [µM] | IC50 (MCF-7; Homo sapiens, MCF7) [µM] | IC50 (HepG2; Homo sapiens) [µM] | IC50 (HT-29; Homo sapiens) [µM] | IC50 (BGC-823; Homo sapiens) [µM] | IC50 [1] [µM]
173.3 to 175.1 | c1cncc(-c2nccc3c4ccccc4n(CCCCn4c5ccccc5c5ccncc54)c23)c1 [Compound 5a, 1–(3-pyridyl)-9–(4-(β-carboline-9-yl)butyl)-β-carboline] | – | – | – | – | – | – | > 100 | > 100 | > 100 | 39.1 ± 5.4 | > 100 | > 100 | –
141.3 to 142.9 | Cc1nccc2c3ccccc3n(CCCCCCn3c4ccccc4c4ccnc(-c5cccnc5)c43)c12 [Compound 5d, 1–(3-pyridyl)-9–(6-(1-methyl-β-carboline-9-yl)hexyl)-β-carboline] | 14.5 ± 0.9 | 18.9 ± 3.1 | – | – | – | – | < 20 | < 20 | > 100 | > 100 | > 100 | > 100 | –
214.8 to 216 | Cc1nccc2c3ccccc3n(CCCCn3c4ccccc4c4ccnc(-c5cccs5)c43)c12 [Compound 5f, 1–(2-thienyl)-9–(4-(1-methyl-β-carboline-9-yl)butyl)-β-carboline] | – | – | – | – | – | – | – | 64.1 ± 7.6 | 46.6 ± 4.8 | > 100 | 56.1 ± 4.2 | 38.8 ± 2.9 | –
169.1 to 171.2 | Cc1nccc2c3ccccc3n(CCCCCn3c4ccccc4c4ccnc(-c5ccccc5Cl)c43)c12 [Compound 5j, 1–(2-chlorophenyl)-9–(5-(1-methyl-β-carboline-9-yl)pentyl)-β-carboline] | 16.6 ± 3.1 | 18.6 ± 2.1 | – | – | – | – | < 20 | < 20 | 46.8 ± 3.7 | > 100 | 24.1 ± 2.2 | > 100 | –
241.2 to 242.4 | COc1ccc(-c2nccc3c4ccccc4n(CCCCn4c5ccccc5c5ccnc(-c6cccnc6)c54)c23)cc1 [Compound 5k, 1–(4-methoxyphenyl)-9–(4-(1–(3-pyridyl)-β-carboline-9-yl)butyl)-β-carboline] | – | – | – | – | – | – | > 100 | > 100 | > 100 | > 100 | > 100 | > 100 | –
239.8 to 240.5 | COc1ccc(-c2nccc3c4ccccc4n(CCCCn4c5ccccc5c5ccnc(-c6cccnc6)c54)c23)cc1OC [Compound 5l, 1–(3,4-dimethoxyphenyl)-9–(4-(1–(3-pyridyl)-β-carboline-9-yl)butyl)-β-carboline] | – | – | – | – | – | – | 46.8 ± 6.4 | 93.2 ± 7.1 | > 100 | 79.5 ± 12.3 | 91.1 ± 10.6 | > 100 | –
